The values that follow come from US8669243B2, “Steroid-derived cyclopamine analogs and methods for using the same in the prevention or treatment of cancer” (The Wistar Institute, priority 2007, dated 2014).

“Also recorded” adds a separate entry of the source.

Type in all cases: cell-based
The test system of assay [1] is granule neuron precursors (GNPs) purified from postnatal mouse cerebella. The experiment in a line: SHH-induced granule neuron precursor (GNP) proliferation, BrdU incorporation. On the set-up: inhibition of SHH-induced GNP proliferation (percentage BrdU positive): dose or concentration left out as unconfirmed. The settings on record: for inhibition of SHH-induced GNP proliferation (BrdU-positive cells): 10 μM, SHH 600 ng/ml, FIG. 2; for inhibition of SHH-induced GNP proliferation (percentage BrdU positive): BrdU 6 hours before fixation, FIG. 5. Here is the method: Purified GNPs were either not treated (CTR, n=4) or treated with SHH (600 ng/ml (n=4), alone or in combination with cyclopamine (10 μM, n=4), tomatidine (10 μM, n=4), analog 18 (10 μM, n=4) or estrone 15 (10 μM, n=2). BrdU-positive cells were counted with a fluorescent microscope using a 20× objective, wherein at least ten independent fields for each culture condition were counted per culture condition.
It has previously been shown that SHH is a potent mitogen for granule neuron precursors (GNPs) purified from postnatal mouse cerebella (Dahmane & Ruiz I Altaba (1999) Development 126:3089-3200). This well-established system was used to test the instant steroid-derived cyclopamine analogs for their activity in inhibiting this proliferative response of GNPs to SHH. […] GNPs were purified from postnatal day 5 (P5) mouse cerebella, plated on poly-D-lysine in serum-free DMEM-F12 and treated with either SHH alone or SHH plus the analogs. Treatment with SHH and cyclopamine was used as a control for inhibition.
GNPs were purified from postnatal day 5 (P5) mouse cerebella and treated with either SHH alone, or SHH in combination with cyclopamine, analog 33, or analog 37, each used at […]. BrdU was added to the media 6 hours before fixation. Percentage of brdU positive was determined following counting with a fluorescence microscope using a 20× objective (AXIOSKOP, ZEISS). At least five independent fields for each culture condition were counted. The analysis was performed on three independent experiments. Statistical analysis was performed with the Student t test.

The subject of assay [2] is SHH-induced GLI-luciferase activity in SHH-Light2 cells. The experiment in a line: SHH-Light2 GLI-dependent firefly luciferase reporter assay. As to the method: Shh-Light2 cells were seeded at 70% confluency in 24 wells, 24 hours prior to treatment. They were then cultured for an additional 48 hours in standard serum-containing media prior to analysis. GLI-binding site luciferase activities were measured using the luciferase reporter assay system with the luciferase kit (PROMEGA).
SHH-light2 cells were treated with SHH (600 ng/ml, R&D) alone or in combination with cyclopamine (CYC), analog 33 or analog 37. CYC, analog 33 and analog 37 were used at […].
One screen involved examining the activation of the SHH pathway using the well-established cell line, SHH-Light2 cells. This cell line is a 3T3 clone that stably expresses a GLI-dependant firefly luciferase (Taipale, et al. (2000) Nature 406:1005-1009). […] Concentrations of each analog, ranging from 20 μM to 2.5 μM, were tested. SHH-Light2 cells were seeded 24 hours prior to treatment. They were then cultured for an additional 48 hours in standard serum-containing media prior to analysis. GLI-binding site luciferase activities were measured using a commercially available luciferase reporter assay system.
The activity of analogs 33 and 37 on the SHH signaling pathway was analyzed using the SHH-Light2 cells described herein.
(A reporter such as luciferase makes a cellular process visible.)

Assay [3] has as its system human medulloblastoma DAOY cells. In words: DAOY cell survival, colorimetric MTT assay. The following applies: 72 hours treatment; FIG. 6. As to the method:
DAOY cells were treated for 72 hours with either cyclopamine (CYC), analog 33 or analog 37 before cell survival was assayed with a colorimetric MTT assay. Absorbance at 570 nm is directly proportional to the number of living cells.
Abnormal activation of the SHH signaling pathway has been linked to various cancers including medulloblastoma, a malignancy of the cerebellum with the highest incidence of all human pediatric malignant brain tumors. A subset of these tumors is thought to arise from deregulation of GNP development in the cerebellum and require SHH signaling for their growth. It was therefore tested whether analogs 33 and 37 were also efficient in reducing the viability of medulloblastoma cells using human medulloblastoma DAOY cells.

With `C[C@]12CC[C@@H]3c4ccc(O)cc4CC[C@H]3[C@@H]1CC[C@@]21Cc2ncccc2O1` [compound 18], the “inhibition of SHH-induced GNP proliferation (BrdU-positive cells)” value (from here on “inhibition … (BrdU-positive cells)”) in assay [1] is listed as “as potent as cyclopamine”. The “inhibition of SHH-induced activation of GLI-dependant firefly luciferase” value in assay [2] (2.5 μM, recombinant SHH (200 ng), FIG. 1C) is on record as “inhibited SHH activity comparable to cyclopamine”; in assay [2] (5 μM, recombinant SHH (200 ng), FIG. 1B), “inhibited SHH activity comparable to cyclopamine”; in assay [2] (10 μM, recombinant SHH (200 ng), FIG. 1A), “effectively inhibited SHH activity”.
Turning to `C[C@]12CC[C@@H]3c4ccc(O)cc4CC[C@H]3[C@@H]1CC[C@@]21C[C@@H]([C@H]2CCCN2)O1` [compound 37], the “cell survival / viability of DAOY cells (absorbance at 570 nm)” value in assay [3] is given as “significant decrease of cell survival; also recorded: active in reducing DAOY cells viability”. For the same molecule, the “inhibition of SHH-induced GNP proliferation (percentage BrdU positive)” value in assay [1] is listed as “as potent as cyclopamine; also recorded: blocked”. The “inhibition of SHH signaling activity (GLI-luciferase)” value in assay [2] (SHH 600 ng/ml, FIG. 4) is “strong inhibition of SHH signaling activity comparable to that of cyclopamine”.
On to `CC1=C2C[C@H]3[C@@H](CC=C4C[C@@H](O)CC[C@@]43C)[C@@H]2CC[C@]12O[C@@H]1C[C@H](C)CN[C@H]1[C@H]2C` [cyclopamine], for which, in assay [3], the “cell survival / viability of DAOY cells (absorbance at 570 nm)” value is given as “significant decrease of cell survival”. Besides, in assay [1], the “inhibition … (BrdU-positive cells)” value is on record as “significantly decreased cell proliferation” and the “inhibition of SHH-induced GNP proliferation (percentage BrdU positive)” value is “blocked”. In addition, the “inhibition of SHH-induced reporter activity” value in assay [2] (5 μM, recombinant SHH (200 ng), 48 hours, FIGS. 3 and 4) is given as “largely blocked”.
Regarding `C[C@H]1CC[C@]2(NC1)O[C@H]1C[C@H]3[C@@H]4CC[C@H]5C[C@@H](O)CC[C@]5(C)[C@H]4CC[C@]3(C)[C@H]1[C@@H]2C` [tomatidine, reference compound], the “inhibition … (BrdU-positive cells)” value in assay [1] was “had no effect”.
